# According to publication PMC6429331, “Synthesis, Molecular Docking and β-Glucuronidase Inhibitory Potential of Indole Base Oxadiazole Derivatives” (Molecules, 2019):
# Columns and labels:
# [1] = target: T1, β-glucuronidase (Bos taurus, UniProt A3KMY8); experiment: β-Glucuronidase assay (p-nitrophenyl-β-D-glucuronide, absorbance at 405 nm); type: biochemical; conditions: classified into three groups from Table 1
# T1 sequence (A3KMY8 24-652): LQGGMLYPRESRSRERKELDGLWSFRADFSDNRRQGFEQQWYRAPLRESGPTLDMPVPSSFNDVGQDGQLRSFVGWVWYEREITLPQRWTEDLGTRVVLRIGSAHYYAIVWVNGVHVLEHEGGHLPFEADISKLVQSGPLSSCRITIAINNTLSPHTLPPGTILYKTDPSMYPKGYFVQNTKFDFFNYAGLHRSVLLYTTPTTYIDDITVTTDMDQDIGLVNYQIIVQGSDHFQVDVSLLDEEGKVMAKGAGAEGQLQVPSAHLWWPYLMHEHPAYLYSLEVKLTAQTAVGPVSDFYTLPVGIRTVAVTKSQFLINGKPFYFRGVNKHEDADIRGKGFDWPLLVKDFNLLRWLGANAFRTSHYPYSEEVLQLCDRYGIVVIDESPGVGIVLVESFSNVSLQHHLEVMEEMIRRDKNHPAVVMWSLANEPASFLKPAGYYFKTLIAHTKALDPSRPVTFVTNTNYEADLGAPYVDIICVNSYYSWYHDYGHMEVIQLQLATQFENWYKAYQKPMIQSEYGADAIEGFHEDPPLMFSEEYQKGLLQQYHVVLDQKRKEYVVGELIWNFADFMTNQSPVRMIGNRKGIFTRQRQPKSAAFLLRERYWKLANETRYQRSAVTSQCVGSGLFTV
# Protocol: β-glucuronidase activity was determined in accordance to method used by measuring absorbance at 405 nm of p-nitrophenol formed substrate by spectrophotometric method. 250 µL was the volume of total reaction. Reaction mixture containing 5 µL of test compound solution, 185 µL of 0.1M acetate buffer, and 10 µL of enzyme solution were incubated for 30 min at 37 °C. At 405 nm the plates were recorded on multiplate reader (SpectaMax plus 384) after the addition of 50 µL of 0.4mM p-nitrophenyl-β-D-glucuronide. Experiments were performed for triplicate.
SMILES,activity group according to inhibitory IC50 values [1],melting point [°C]
"Cc1ccccc1-c1nnc(Cc2cc3ccccc3[nH]2)o1 [Compound 2, 2-((1H-indol-2-yl)methyl)-5-(o-tolyl)-1,3,4-oxadiazole]",low active group,300 to 301
"Oc1ccccc1-c1nnc(Cc2cc3ccccc3[nH]2)o1 [Compound 3, 2-(5-((1H-indol-2-yl)methyl)-1,3,4-oxadiazol-2-yl) phenol]",–,314 to 315
"Oc1ccc(-c2nnc(Cc3cc4ccccc4[nH]3)o2)c(O)c1 [Compound 8, 4-(5-((1H-indol-2-yl)methyl)-1,3,4-oxadiazol-2-yl) benzene-1,3-diol]",–,318 to 319
"O=[N+]([O-])c1ccc(-c2nnc(Cc3cc4ccccc4[nH]3)o2)cc1 [Compound 12, 2-((1H-indol-2-yl)methyl)-5-(4-nitrophenyl)-1,3,4-oxadiazole]",–,309 to 310
"c1ccc2[nH]c(Cc3nnc(-c4ccncc4)o3)cc2c1 [Compound 17, 2-((1H-indol-2-yl)methyl)-5-(pyridin-4-yl)-1,3,4-oxadiazole]",–,284 to 285
"O=[N+]([O-])c1ccccc1-c1nnc(Cc2cc3ccccc3[nH]2)o1 [Compound 10, 2-((1H-indol-2-yl)methyl)-5-(2-nitrophenyl)-1,3,4-oxadiazole]",–,307 to 308
"Oc1cccc(-c2nnc(Cc3cc4ccccc4[nH]3)o2)c1O [Compound 6, 3-(5-((1H-indol-2-yl)methyl)-1,3,4-oxadiazol-2-yl) benzene-1,2-diol]",Highly active group,317 to 318
"COc1ccc(O)c(-c2nnc(Cc3cc4ccccc4[nH]3)o2)c1 [Compound 13, 2-(5-((1H-indol-2-yl)methyl)-1,3,4-oxadiazol-2-yl)-4-methoxyphenol]",–,313 to 314
"Oc1ccc(-c2nnc(Cc3cc4ccccc4[nH]3)o2)cc1O [Compound 7, 4-(5-((1H-indol-2-yl)methyl)-1,3,4-oxadiazol-2-yl) benzene-1,2-diol]",Highly active group,316 to 317
"Oc1ccc(O)c(-c2nnc(Cc3cc4ccccc4[nH]3)o2)c1 [Compound 5, 2-(5-((1H-indol-2-yl)methyl)-1,3,4-oxadiazol-2-yl) benzene-1,4-diol]",moderate active group,–
"Cc1ccc(-c2nnc(Cc3cc4ccccc4[nH]3)o2)cc1 [Compound 1, 2-((1H-indol-2-yl)methyl)-5-(p-tolyl)-1,3,4-oxadiazole]",low active group,304 to 305
"Oc1cccc(-c2nnc(Cc3cc4ccccc4[nH]3)o2)c1 [Compound 4, 3-(5-((1H-indol-2-yl)methyl)-1,3,4-oxadiazol-2-yl) phenol]",moderate active group,311 to 312
"O=[N+]([O-])c1cccc(-c2nnc(Cc3cc4ccccc4[nH]3)o2)c1 [Compound 11, 2-((1H-indol-2-yl)methyl)-5-(3-nitrophenyl)-1,3,4-oxadiazole]",–,303 to 304
"c1cncc(-c2nnc(Cc3cc4ccccc4[nH]3)o2)c1 [Compound 16, 2-((1H-indol-2-yl)methyl)-5-(pyridin-3-yl)-1,3,4-oxadiazole]",–,279 to 280
"Fc1ccccc1-c1nnc(Cc2cc3ccccc3[nH]2)o1 [Compound 18, 2-((1H-indol-2-yl)methyl)-5-(2-fluorophenyl)-1,3,4-oxadiazole]",–,294 to 295
